Test [1] relates to K562. The test can be described thus: Induction of cell cycle arrest in human K562 cells assessed as accumulation at G2/M phase at 5 to 10 nM after 24 hrs by propidium iodide-staining based flow cytometry. In kind it is functional. (A flow cytometer gives signals particle by particle.)
For test [2], the target named is T1, Tubulin (Homo sapiens) (UniProt P68371+Q9H4B7+P0DPH7+P68366+Q13509+Q71U36+P04350+Q3ZCM7+P07437+P68363+Q9BQE3+Q6PEY2+Q13885+Q9BVA1+Q9BUF5). The test can be described thus: Inhibition of tubulin polymerization in human K562 cells assessed as multinucleation at 10 nM after 24 hrs by DAPI-staining based inverted microscopy. In kind it is cell-based.
Test [3] is described as follows: Antiproliferative activity against human BL2 cells after 72 hrs by MTS assay. The note with it: BL2, 72 h. In kind it is functional, cell-based. In general terms: Tetrazolium assays rely on reduction of a dye to a coloured formazan, in cell work by metabolically active cells.
The target in test [4] is T2, Histone deacetylase (Homo sapiens) (UniProt Q13547+O15379+Q9UBN7+Q92769+Q9UQL6+Q8WUI4+Q9BY41+Q96DB2+P56524+Q9UKV0+Q969S8). Put plainly: Inhibition of HDAC in human HT-29 cells assessed as gamma-H2AX phosphorylation after 3 days by Western blot analysis. In kind it is cell-based. For orientation: A western blot detects proteins with antibodies after separation by electrophoresis.

Test [5] has as its target T3, Protein deacetylase HDAC6 (Homo sapiens, UniProt Q9UBN7).
T3 sequence (Q9UBN7 whole entry): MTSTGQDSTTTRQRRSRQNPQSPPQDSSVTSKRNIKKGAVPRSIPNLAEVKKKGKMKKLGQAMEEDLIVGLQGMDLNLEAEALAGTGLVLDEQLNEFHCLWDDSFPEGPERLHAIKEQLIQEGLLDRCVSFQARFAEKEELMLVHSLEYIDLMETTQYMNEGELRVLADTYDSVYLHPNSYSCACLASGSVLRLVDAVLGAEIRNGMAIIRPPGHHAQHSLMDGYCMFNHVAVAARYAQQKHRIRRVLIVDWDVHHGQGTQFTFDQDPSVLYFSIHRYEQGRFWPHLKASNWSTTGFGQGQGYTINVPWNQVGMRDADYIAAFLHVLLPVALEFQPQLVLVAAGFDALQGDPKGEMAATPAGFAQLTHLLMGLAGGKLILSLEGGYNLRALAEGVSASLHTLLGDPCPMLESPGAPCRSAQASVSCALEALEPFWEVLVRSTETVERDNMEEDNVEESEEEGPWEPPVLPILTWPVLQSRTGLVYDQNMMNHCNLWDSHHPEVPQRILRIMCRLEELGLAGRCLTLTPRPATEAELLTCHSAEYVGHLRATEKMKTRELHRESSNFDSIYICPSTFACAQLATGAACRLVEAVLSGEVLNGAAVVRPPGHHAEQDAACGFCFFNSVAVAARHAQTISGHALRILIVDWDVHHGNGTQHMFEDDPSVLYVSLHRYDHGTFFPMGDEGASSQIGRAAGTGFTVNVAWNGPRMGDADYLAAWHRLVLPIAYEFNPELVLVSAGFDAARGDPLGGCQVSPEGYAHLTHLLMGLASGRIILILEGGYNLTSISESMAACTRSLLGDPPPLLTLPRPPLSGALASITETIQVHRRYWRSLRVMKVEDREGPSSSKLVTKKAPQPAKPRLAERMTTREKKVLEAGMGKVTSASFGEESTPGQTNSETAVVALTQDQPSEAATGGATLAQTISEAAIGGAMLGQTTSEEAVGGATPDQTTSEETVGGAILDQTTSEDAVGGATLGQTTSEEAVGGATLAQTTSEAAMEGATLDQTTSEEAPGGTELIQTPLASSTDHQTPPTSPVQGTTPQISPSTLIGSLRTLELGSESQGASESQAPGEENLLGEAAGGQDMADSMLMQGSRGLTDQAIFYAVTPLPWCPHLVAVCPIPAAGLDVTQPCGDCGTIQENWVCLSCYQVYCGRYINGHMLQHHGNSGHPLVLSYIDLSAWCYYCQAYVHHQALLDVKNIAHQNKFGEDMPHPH
Description: Inhibition of human recombinant HDAC6 after 30 mins using fluorogenic substrate by fluorimetric assay

Test [6] deals with K-562R. Put plainly: Potency index, ratio of IC50 for isoCA4 to IC50 for test compound for antiproliferative activity against human K562R cells after 72 hrs by MTS assay. In kind it is functional.
Test [7] has as its target T2, Histone deacetylase (Homo sapiens). Put plainly: Inhibition of HDAC in human HT-29 cells assessed as phosphorylated gamma-H2AX levels at 80 nM after 3 days by Western blot analysis relative to control. In kind it is cell-based.
The target of test [8] is T1, Tubulin (Homo sapiens). Put plainly: Inhibition of tubulin polymerization in human K562 cells assessed as shrinkage of microtubule spindles at 10 nM after 24 hrs by DAPI-staining based inverted microscopy. In kind it is cell-based.
Test [9] concerns HT-29. Put plainly: Potency index, ratio of IC50 for TSA to IC50 for test compound for antiproliferative activity against human HT-29 cells after 72 hrs by MTS assay. In kind it is functional.
In test [10] the test system is K-562R. The test can be described thus: Potency index, ratio of IC50 for TSA to IC50 for test compound for antiproliferative activity against human K562R cells after 72 hrs by MTS assay. In kind it is functional.
The subject of test [11] is HT-29. The test can be described thus: Potency index, ratio of IC50 for isoCA4 to IC50 for test compound for antiproliferative activity against human HT-29 cells after 72 hrs by MTS assay. In kind it is functional.
Test [12] has as its target T4, Histone deacetylase 8 (Homo sapiens, UniProt Q9BY41).
T4 sequence (Q9BY41 whole entry): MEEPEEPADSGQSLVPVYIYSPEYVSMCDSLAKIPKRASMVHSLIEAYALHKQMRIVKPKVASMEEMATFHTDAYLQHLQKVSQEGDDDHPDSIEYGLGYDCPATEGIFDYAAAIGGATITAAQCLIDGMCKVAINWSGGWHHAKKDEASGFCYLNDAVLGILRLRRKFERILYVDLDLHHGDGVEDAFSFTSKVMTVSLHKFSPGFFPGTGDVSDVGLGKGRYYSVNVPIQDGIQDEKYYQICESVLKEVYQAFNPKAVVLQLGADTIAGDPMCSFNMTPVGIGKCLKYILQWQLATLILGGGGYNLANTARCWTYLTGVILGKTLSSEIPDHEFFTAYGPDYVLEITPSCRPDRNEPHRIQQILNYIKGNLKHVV
Put plainly: Inhibition of human recombinant HDAC8 after 30 mins using fluorogenic substrate by fluorimetric assay.

Test [13] deals with HT-29. Put plainly: Antiproliferative activity against human HT-29 cells in presence of TSA after 72 hrs by MTS assay relative to control. In kind it is functional, cell-based. The note with it: HT-29, 72 h.

The IC50 is the concentration that gives 50% inhibition.

SMILES strings stand for the structures. Active and inactive are the calls of the source. No cut-off for these calls is given here.

`C=C(c1ccc(OC)c(/C=C/C(=O)NO)c1)c1cc(OC)c(OC)c(OC)c1`: the outcome in test [1], in [2] and in test [8] was Active. Also, the half-inhibitory concentration (IC50) worked out at 10 nM in test [3] and 15000 nM in test [5]. For the same compound, in test [4], the inhibition entry is “Dose-dependent effect”. For the same compound, the “Ratio IC50” value was 2 in test [6], 17 in test [9], 60 in test [10] and 135 in test [11]. Also, in [7], the fold change (FC) worked out at 14.2.
For the compound `C=C(c1ccc(OC)c(O)c1)c1cc(OC)c(OC)c(OC)c1`, the IC50 entry in [12] is “Not Active”; in [13] it was 3.8 nM.

The values above are taken from ChEMBL document CHEMBL4325829, “Design and Synthesis of Tubulin and Histone Deacetylase Inhibitor Based on iso-Combretastatin A-4” (J Med Chem, 2018).
